As usually defined, the pIC50 is −log10 of the IC50, conventionally taken in molar units.

pIC50: −log10 of the molar value.

The assay deals with T1, Human autotaxin enzyme (Homo sapiens, UniProt Q13822).
T1 construct: purchased R&D System
As to the kind of experiment: Evaluation of autotaxin inhibitor, Method C (18:0 Lyso PC substrate, choline assay, Resorufin fluorescence). The note with it: Method C (Test Example 3), read-out: Inhibitory activity (enzyme inhibitory activity, IC50). It counts as biochemical. The method in brief: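 Recombinant human autotaxin with compound and 200 μM 18:0 Lyso PC (stock) in Tris-HCl pH 7.5, NaCl, MgCl2, Triton X-100, 2 h RT. Released choline detected via choline oxidase/peroxidase/Amplex-type reagent, 20 min, resorufin fluorescence 531/598 nm; % inhibition vs no-compound and no-enzyme controls, concentration-response curve.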

Turning to `CCCCCC1CN(Cc2cccc(CC(=O)O)c2)C(=O)c2cc(-c3ccc(Cl)cc3)nn21` (stereo not shown) [Compound I-0120], the pIC50 was 7.00 to 8.00. The figure for `CCCCCC1CN(CC(=O)NCC)C(=O)c2cc(-c3ccc(Cl)cc3)nn21` (stereo not shown) [Compound I-0108] is 6.00 to 7.00; for `CCCCC1CN(Cc2ccc(C#N)cc2)C(=O)c2cc(N3CCC(C#N)CC3)nn21` (stereo not shown) [Compound I-0304] it is ≤ 6.00. The figure for `CCCCCC1CN(CC(=O)N2C[C@@H]3C(C(=O)O)[C@@H]3C2)C(=O)c2cc(-c3ccc(Cl)cc3)nn21` (stereo partly shown) [Compound I-0063] is 7.00 to 8.00; for `CCCCCC1CN(CC(=O)N2CCCCC2CC(=O)O)C(=O)c2cc(-c3ccc(Cl)cc3)nn21` (stereo not shown) [Compound I-0068] it is > 8.00. The value for `CCCCCC1CN(CC(=O)N2CCC(C)CC2)C(=O)c2cc(-c3ccc(Cl)cc3)nn21` (stereo not shown) [Compound I-0093] was 6.00 to 7.00; that for `CCCCC1CN(CC(=O)NC2(C#N)CC2)C(=O)c2cc(-c3ccc(Cl)cc3)nn21` (stereo not shown) [Compound I-0187] was 6.00 to 7.00; that for `CCCCC1CN(Cc2ccc(C#N)cc2)C(=O)c2cc(-c3ccc(Cl)cc3NS(C)(=O)=O)nn21` (stereo not shown) [Compound I-0308] was ≤ 6.00. As to `CCCCC1CN(CC(=O)NCc2nn[nH]n2)C(=O)c2cc(-c3ccc(Cl)cc3)nn21` (stereo not shown) [Compound I-0232], the pIC50 was 7.00 to 8.00. The value for `CCCOCC1CN(CC(=O)OC(C)(C)C)C(=O)c2cc(-c3ccc(Cl)cc3)nn21` (stereo not shown) [Compound I-0250] was 7.00 to 8.00; that for `CCCCCC1CN(CNC(C)=O)C(=O)c2cc(-c3ccc(Cl)cc3)nn21` (stereo not shown) [Compound I-0008] was 7.00 to 8.00. The figure for `C[C@H]1CN(Cc2ccc(C#N)cc2)C(=O)c2cc(-c3c(N)cc(Cl)cc3CO)nn21` [Compound I-0346] is 6.00 to 7.00; for `CCCCCC1CN(CC(=O)N2CCCCC2Cc2ccccc2)C(=O)c2cc(-c3ccc(Cl)cc3)nn21` (stereo not shown) [Compound I-0030] it is ≤ 6.00. The value for `CCCCCC1CN(Cc2cccc3c(C(=O)O)csc23)C(=O)c2cc(-c3ccc(Cl)cc3)nn21` (stereo not shown) [Compound I-0121] was 7.00 to 8.00. Regarding `CCCCC[C@@H]1CN(CC(=O)N2CCC(C(=O)O)CC2)C(=O)c2cc(-c3ccc(Cl)cc3)nn21` [Compound I-0312], the pIC50 is 7.00 to 8.00. `C[C@H]1CN(Cc2cccc(C#N)c2)C(=O)c2cc(-c3ccc(Cl)cc3)nn21` [Compound I-0164]: the pIC50 is 6.00 to 7.00. The value for `CCOC(=O)CN1C(=O)c2cc(-c3ccc(Cl)cc3)nn2C2COCC21` (stereo not shown) [Compound I-0027] was ≤ 6.00.

On to `CCCCCC1CN(Cc2ccc(C(N)=O)cc2)C(=O)c2cc(-c3ccc(Cl)cc3)nn21` (stereo not shown) [Compound I-0147], for which the pIC50 is 6.00 to 7.00. The figure for `N#Cc1ccc(CN2CC3CC/C=C/CC(=O)Nc4cc(Cl)ccc4-c4cc(n3n4)C2=O)cc1` (stereo not shown) [Compound I-0357] is > 8.00; for `CCCCCC1CN(Cc2ccc(CC(=O)OC)cc2)C(=O)c2cc(-c3ccc(Cl)cc3)nn21` (stereo not shown) [Compound I-0143] it is ≤ 6.00.

Regarding `CCOC(=O)CN1CC(C2CC2)n2nc(-c3ccc(Cl)cc3)cc2C1=O` (stereo not shown) [Compound I-0018], the pIC50 was ≤ 6.00. The value for `CCCCCC1CNC(=O)c2cc(-c3ccc(Cl)cc3)nn21` (stereo not shown) [Compound I-0001] was ≤ 6.00; that for `CCCCC1CN(CC(=O)NCCc2cn[nH]c2)C(=O)c2cc(-c3ccc(Cl)cc3)nn21` (stereo not shown) [Compound I-0234] was 6.00 to 7.00; that for `CCCOCC1CN(CC(=O)O)C(=O)c2cc(-c3ccc(Cl)cc3)nn21` (stereo not shown) [Compound I-0253] was ≤ 6.00.

As for `CCCCCC1CN(CC(=O)N2CCCC2)C(=O)c2cc(-c3ccc(Cl)cc3)nn21` (stereo not shown) [Compound I-0097], the pIC50 is 6.00 to 7.00. Take `CCCOCC1CN(CC(=O)NCC(C)(C)O)C(=O)c2cc(-c3ccc(Cl)cc3)nn21` (stereo not shown) [Compound I-0252]: the pIC50 is 7.00 to 8.00. The value for `CCOC(=O)C1CCN(C(=O)CN2C(=O)c3cc(-c4ccc(Cl)cc4)nn3[C@@H]3CCC[C@@H]32)CC1` [Compound I-0011] was ≤ 6.00. In the case of `C[C@H]1CN(Cc2ccc(C#N)cc2)C(=O)c2cc(-c3ccc(Cl)cc3C=O)nn21` [Compound I-0296], the pIC50 was 6.00 to 7.00.

As for `CCCCCC1CN(CC(=O)N2CCC(N(C)C)CC2)C(=O)c2cc(-c3ccc(Cl)cc3)nn21` (stereo not shown) [Compound I-0111], the pIC50 was ≤ 6.00.

As for `CCCCC1CN(Cc2ccccn2)C(=O)c2cc(-c3ccc(Cl)cc3)nn21` (stereo not shown) [Compound I-0256], the pIC50 was 6.00 to 7.00. The value for `CCCCC1CN(Cc2ccc(C#N)cc2)C(=O)c2cc(-c3ccc(Cl)cc3CN(C)C)nn21` (stereo not shown) [Compound I-0282] was ≤ 6.00; that for `CCCCC1CN(CC(=O)NCC(=O)NC)C(=O)c2cc(-c3ccc(Cl)cc3)nn21` (stereo not shown) [Compound I-0224] was 6.00 to 7.00. The figure for `CCCCCC1CN(c2ccc(C(=O)O)cc2)C(=O)c2cc(-c3ccc(Cl)cc3)nn21` (stereo not shown) [Compound I-0179] is 6.00 to 7.00.

For the compound `CCCCC1CN(Cc2cccc(C(=O)O)c2)C(=O)c2cc(-c3ccc(Cl)cc3)nn21` (stereo not shown) [Compound I-0150], the pIC50 is > 8.00. For `C[C@H]1CN(Cc2ccc(C#N)cc2)C(=O)c2cc(-c3ccc(Cl)cc3Nc3nccs3)nn21` [Compound I-0324], the pIC50 is ≤ 6.00. In the case of `CCCCCC1CN(CC(=O)N2CCCC(C(=O)O)C2)C(=O)c2cc(-c3ccc(Cl)cc3)nn21` (stereo not shown) [Compound I-0050], the pIC50 is 7.00 to 8.00.

Turning to `CCCCC1CN(CC(=O)NCCCC#N)C(=O)c2cc(-c3ccc(Cl)cc3)nn21` (stereo not shown) [Compound I-0244], the pIC50 is 6.00 to 7.00. `CC1(C)CN(CC(=O)N2CCC(C(=O)O)CC2)C(=O)c2cc(-c3ccc(Cl)cc3)nn21` [Compound I-0016]: the pIC50 is ≤ 6.00. As to `CCCCC1CN(CC(=O)N(CCC#N)CCC#N)C(=O)c2cc(-c3ccc(Cl)cc3)nn21` (stereo not shown) [Compound I-0235], the pIC50 is 7.00 to 8.00. With `CCCCCC1CN(CC(=O)N2CCCCC2C(=O)O)C(=O)c2cc(-c3ccc(Cl)cc3)nn21` (stereo not shown) [Compound I-0052], the pIC50 is > 8.00. The value for `CCCCC1CN(Cc2ccc(C#N)cc2)C(=O)c2cc(N3CC(c4ccccc4)C3)nn21` (stereo not shown) [Compound I-0303] was ≤ 6.00; that for `CCCC1CN(Cc2ccc(C#N)cc2)C(=O)c2cc(-c3ccc(Cl)cc3NC(C)=O)nn21` (stereo not shown) [Compound I-0188] was 7.00 to 8.00. As for `CCCCC1CN(CC(=O)C2CCCCC2)C(=O)c2cc(-c3ccc(Cl)cc3)nn21` (stereo not shown) [Compound I-0254], the pIC50 is 7.00 to 8.00. The figure for `CCCCCC1CN(CC(=O)N2CCCCC2C)C(=O)c2cc(-c3ccc(Cl)cc3)nn21` (stereo not shown) [Compound I-0116] is 7.00 to 8.00; for `CCCCCC1CN(CC(=O)N(C)CC)C(=O)c2cc(-c3ccc(Cl)cc3)nn21` (stereo not shown) [Compound I-0077] it is 6.00 to 7.00; for `CCCCCC1CN(CC(=O)N2CCCC(C(N)=O)C2)C(=O)c2cc(-c3ccc(Cl)cc3)nn21` (stereo not shown) [Compound I-0095] it is 7.00 to 8.00.

For `CCCCC1CN(CC(=O)N2CCC[C@@H](C)C2)C(=O)c2cc(-c3ccc(Cl)cc3)nn21` (stereo partly shown) [Compound I-0248], the pIC50 is 6.00 to 7.00. The value for `N#Cc1ccc(CN2CC(CC(F)(F)F)n3nc(-c4c(C#N)cc(Cl)cc4CO)cc3C2=O)cc1` (stereo not shown) [Compound I-0371] was 6.00 to 7.00.

As for `CCCCC1CN(CC(=O)N(C)CC(O)c2ccccc2)C(=O)c2cc(-c3ccc(Cl)cc3)nn21` (stereo not shown) [Compound I-0228], the pIC50 is 6.00 to 7.00.
